#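 Protocol summary: plate cells (96-well), add compound at 5 concentrations, incubate 48 h, interpolate endpoints linearly. Definition used: TGI = concentration required for complete inhibition of growth.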
# How the values were obtained:
# Assay in all cases: NCI anticancer screen, dose series, 48 h
# CCRF-CEM leukemia = tested on: CCRF-CEM leukemia
# HT29 colon = tested on: HT29 colon
# MDA-N = tested on: MDA-N
# NCI-H460 lung = tested on: NCI-H460 lung
# SF-539 CNS = tested on: SF-539 CNS
# SK-MEL-28 melanoma = tested on: SK-MEL-28 melanoma
# SK-MEL-5 melanoma = tested on: SK-MEL-5 melanoma
# SK-OV-3 ovarian = tested on: SK-OV-3 ovarian
# SW-620 colon = tested on: SW-620 colon
# UACC-62 melanoma = tested on: UACC-62 melanoma
# BT-549 breast = tested on: BT-549 breast
# MCF7 breast = tested on: MCF7 breast
# HCT-15 colon = tested on: HCT-15 colon
Structure (SMILES),TGI (CCRF-CEM leukemia) [µM],TGI (HT29 colon) [µM],TGI (MDA-N) [µM],TGI (NCI-H460 lung) [µM],TGI (SF-539 CNS) [µM],TGI (SK-MEL-28 melanoma) [µM],TGI (SK-MEL-5 melanoma) [µM],TGI (SK-OV-3 ovarian) [µM],TGI (SW-620 colon) [µM],TGI (UACC-62 melanoma) [µM],TGI (BT-549 breast) [µM],TGI (MCF7 breast) [µM],TGI (HCT-15 colon) [µM]
CCN(CC)C(=O)c1cc([N+](=O)[O-])c(=O)n2c1[nH]c1ccccc12,> 100,> 100,> 100,> 100,> 100,> 100,> 100,> 100,> 100,> 100,,,
COc1cc(-c2nc(SC)nc3c2CCc2ccccc2-3)cc(OC)c1OC,> 100,> 100,,,> 100,> 100,> 100,> 100,> 100,> 100,> 100,> 100,
C=C(Cl)CN1c2ccccc2C=Cc2ccccc21,,56.4,64.1,16.2,75.2,,20.3,> 100,,44.2,> 100,50.4,> 100
Cc1ccc2c(c1)Nc1ccccc1P2(=O)O,> 100,> 100,> 100,> 100,> 100,> 100,> 100,> 100,> 100,> 100,,,> 100
N#Cc1c(N2CCCC2)nsc1Nc1ccccc1,> 100,> 100,> 100,> 100,> 100,> 100,> 100,,> 100,,,,> 100
Cc1cc(OCc2nnc3n2N=C(c2cc(F)c(Cl)cc2Cl)/C(=C/c2ccc(-c4ccc(Cl)cc4)o2)S3)ccc1Cl,> 50,> 50,> 50,> 50,,> 50,> 50,,> 50,> 50,> 50,> 50,> 50
NNS(=O)(=O)c1ccc(/C=C2\NC(=O)NC2=O)cc1,> 100,> 100,> 100,,,> 100,> 100,> 100,> 100,> 100,> 100,> 100,> 100
Cc1ccsc1/C=N/Nc1cc(C)c2ccccc2n1,57.8,15,29.3,,,30.2,9,35.6,48.7,26.6,44.8,30.4,28.2
Cn1c(-c2c(C3=CC(=O)N(c4ccccc4)C3=O)c3ccccc3n2C)cc2ccccc21,> 100,> 100,> 100,> 100,> 100,> 100,> 100,> 100,> 100,> 100,,> 100,> 100
COc1cc2nc(-c3cccs3)nc(N3C(c4cc(OC)c(OC)c(OC)c4)=NNC(=O)c4ccccc43)c2cc1OC,,> 100,,> 100,44.6,81.6,> 100,> 100,,35.8,39.6,> 100,47.8
CCCCCCCCCCCCCCCCCCNc1nc(=O)n(C2CC(OP(=O)(O)OCC3OC(n4cc(F)c(=O)[nH]c4=O)CC3O)C(CO)O2)cc1F (centres undefined),42.7,48.4,,,43.9,> 100,> 100,> 100,> 100,51.1,,> 100,> 100
Cc1oc2nc(N(C)C)n3cnnc3c2c1C,> 100,> 100,,> 100,> 100,> 100,> 100,> 100,> 100,> 100,> 100,> 100,> 100
Cc1ccc(S(=O)(=O)N/N=C\c2c3ccccc3[n+](C)c3ccccc23)cc1,44.2,62.6,,50.3,54,> 100,98.5,> 100,> 100,74.6,,,97.4
CC(C)(C)CC(C)(C)NCC(O)COc1ccc(C(C)(C)c2ccc(OCC(O)CNC(C)(C)CC(C)(C)C)cc2)cc1 (centres undefined),1.03,1.42,,0.782,3.33,1.85,2.67,3.24,0.463,3.31,,,2.69
Fc1ccc2c(c1)nc1n2C(c2c(F)cccc2F)SC1 (centres undefined),,> 100,> 100,> 100,> 100,> 100,68.3,> 100,> 100,> 100,> 100,> 100,> 100
CC(C)(CO)CNc1cc(Cl)nc(N)n1,> 100,> 100,> 100,> 100,> 100,> 100,> 100,,> 100,> 100,> 100,> 100,> 100
OC(CCl)CN1CC[N+]2(CC1)CC[N+]1(CCN(CC(O)CCl)CC1)CC2 (centres undefined),> 50,> 50,,> 50,> 50,> 50,> 50,> 50,> 50,,,,> 50
O=C(Cn1c(=O)oc2ccc(C(=O)c3cccc(Cl)c3)cc21)c1ccccc1,> 100,> 100,,> 100,> 100,> 100,> 100,> 100,> 100,> 100,> 100,> 100,> 100
CNC(=O)C1OC(n2cnc3c(NCc4cccc(I)c4)nc(Cl)nc32)C(O)C1O (centres undefined),76.6,,55.4,,23,,42.2,35,51.6,24,28.5,25.4,20.4
COc1ccc(/C=C(/c2ccc(OC)cc2)c2c(Cl)cc(Cl)c(/C(=C\c3ccc(OC)cc3)c3ccc(OC)cc3)c2N=Nc2ccccc2)cc1,> 100,> 100,,> 100,> 100,> 100,> 100,> 100,> 100,> 100,> 100,> 100,> 100

# — PubChem BioAssay (NCI)
